Each block holds one compound with its values, some of them ahead of it. Activity calls are given as the source filed them.
Experiments:
[1] = biological target: Ras and Rab interactor 1/Tyrosine-protein kinase ABL1 (Homo sapiens, UniProt P00519+Q13671); type: functional;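 also: biochemical TR-FRET dose-response test measuring inhibition of binding between Rin1 and Abl proteins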
Cytochrome P450 2C9 = Cytochrome P450 2C9 (Homo sapiens, UniProt P11712)
[2] = ARNT/TACC3 interaction disruptors, potency, confirmation, biochemical, AlphaScreen, cherry-picked samples (AID 651703); type: functional, Homo sapiens;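 also: His-tagged ARNT PAS-B domain paired with GST-TACC3 E629A dimer coactivator fragment; potency of inhibitors that break up the complex and lower AlphaScreen signal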
Cytochrome P450 2C19 = Cytochrome P450 2C19 (Homo sapiens, UniProt P33261); test: Cytochrome panel assay with activity outcomes. Panel member name: p450-cyp2c19 Compounds with AC50 equal or less than 10 uM are considered active; type: functional; settings: read-out: AC50
[3] = NIH/3T3 fibroblast cytotoxicity, dose response, cytotoxicity control for T. cruzi growth inhibitor project, cell-based, cherry-pick samples, set 2 (AID 651817); type: functional; settings: NIH3T3
[4] = biological target: T1, Low molecular weight phosphotyrosine protein phosphatase (Homo sapiens, UniProt P24666); type: functional; settings: read-out: IC50_Mean
T1 sequence (P24666 whole entry): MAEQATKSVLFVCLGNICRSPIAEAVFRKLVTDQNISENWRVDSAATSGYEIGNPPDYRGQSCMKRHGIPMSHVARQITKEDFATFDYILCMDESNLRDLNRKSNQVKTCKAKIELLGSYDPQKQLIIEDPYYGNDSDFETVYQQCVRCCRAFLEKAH

Cytochrome P450 3A4 = Cytochrome P450 3A4 (Homo sapiens, UniProt P08684);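 also: CYP3A4 tested as one member of a cytochrome P450 panel screen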
Cytochrome P450 2D6 = Cytochrome P450 2D6 (Homo sapiens, UniProt P10635);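 also: CYP2D6 member of a cytochrome P450 panel assay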
[5] = biological target: T1, Low molecular weight phosphotyrosine protein phosphatase; type: functional; settings: read-out: IC50_Mean; remark: listed apart in the source
Melanocortin receptor 4 = Melanocortin receptor 4 (Homo sapiens, UniProt P32245); type: functional, cell-based;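 also: Cell-based assay with luminescence read-out, confirmatory dose-response testing for agonist activity of biased ligands at MC4R; human U2OS cells with tagged receptor and beta-arrestin; potency of agonists that increase receptor coupling to beta-arrestin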
[6] = biological target: T2, Mannose-6-phosphate isomerase (Homo sapiens, UniProt P34949); test: human PMI inhibitors, high substrate, primary screen, biochemical, fluorescence intensity, high mannose 6-phosphate (AID 1220)
T2 sequence (P34949 whole entry): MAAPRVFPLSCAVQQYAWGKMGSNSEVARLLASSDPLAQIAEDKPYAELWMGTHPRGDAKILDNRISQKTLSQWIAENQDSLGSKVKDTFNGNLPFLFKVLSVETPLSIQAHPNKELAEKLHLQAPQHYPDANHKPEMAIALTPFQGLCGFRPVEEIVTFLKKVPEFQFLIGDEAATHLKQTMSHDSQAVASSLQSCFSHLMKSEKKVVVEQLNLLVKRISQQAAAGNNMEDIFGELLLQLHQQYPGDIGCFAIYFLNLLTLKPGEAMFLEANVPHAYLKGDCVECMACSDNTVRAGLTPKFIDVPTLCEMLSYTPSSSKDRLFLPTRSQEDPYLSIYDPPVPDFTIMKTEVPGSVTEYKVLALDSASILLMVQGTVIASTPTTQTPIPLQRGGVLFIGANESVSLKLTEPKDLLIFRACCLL

[7] = inhibitors of intracellular T. cruzi replication, confirmation, NIH3T3 host cells, beta-gal luminescence (AID 2044); type: functional, cell-based;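 also: intracellular parasites grown in NIH/3T3 mouse fibroblasts as host cells; luminescent beta-galactosidase reporter signal from transgenic T. cruzi replicating inside host cells; inhibitors lower the luminescence signal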
[8] = biological target: Mitochondrial peptide methionine sulfoxide reductase (Bos taurus, UniProt P54149); test: Absorbance-based biochemical high throughput dose response assay for activators of Methionine sulfoxide reductase A (MsrA).; type: functional
[9] = biological target: Heat shock protein HSP 90-alpha (Homo sapiens, UniProt P07900); type: functional, organism-based
[10] = cytotoxicity toward NIH3T3 fibroblasts, dose response, counter-screen, cell-based, ATP luminescence, mouse fibroblasts (AID 2010); type: functional;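 also: cells exposed to compound for about 90 hours before reading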
HeLa = test: HeLa cell cytotoxicity, dose response, cytotoxicity control, 24 h, cherry-picked samples (AID 504726); type: functional, cell-based; settings: Homo sapiens;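 also: potency for cytotoxicity as loss of luminescence signal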
[11] = biological target: T3, Rac GTPase-activating protein 1 (Homo sapiens, UniProt Q9H0H5); test: MgcRacGAP GTPase-activating activity inhibitors, confirmation, biochemical, ADP Hunter fluorescence, primary and confirmatory (AID 624330); type: functional
T3 sequence (Q9H0H5 whole entry): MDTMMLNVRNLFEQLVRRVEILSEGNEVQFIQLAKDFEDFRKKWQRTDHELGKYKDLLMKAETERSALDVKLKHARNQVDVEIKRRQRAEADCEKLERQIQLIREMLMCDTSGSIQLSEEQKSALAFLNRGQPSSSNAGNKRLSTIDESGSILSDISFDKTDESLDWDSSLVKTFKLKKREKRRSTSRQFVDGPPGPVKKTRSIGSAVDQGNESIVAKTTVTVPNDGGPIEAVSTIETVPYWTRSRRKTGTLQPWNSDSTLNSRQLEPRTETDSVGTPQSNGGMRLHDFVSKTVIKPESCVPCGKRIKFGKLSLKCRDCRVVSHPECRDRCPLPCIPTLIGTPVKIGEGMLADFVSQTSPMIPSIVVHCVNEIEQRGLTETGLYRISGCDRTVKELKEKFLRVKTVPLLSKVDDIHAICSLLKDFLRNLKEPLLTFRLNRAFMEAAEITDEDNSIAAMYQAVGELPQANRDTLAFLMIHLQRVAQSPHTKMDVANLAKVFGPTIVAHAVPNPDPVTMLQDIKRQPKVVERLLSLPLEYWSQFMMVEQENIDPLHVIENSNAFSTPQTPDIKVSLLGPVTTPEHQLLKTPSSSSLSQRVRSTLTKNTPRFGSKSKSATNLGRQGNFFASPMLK

[12] = biological target: T4, Tyrosine-protein phosphatase non-receptor type 7 (Homo sapiens, UniProt P35236); type: functional
T4 sequence (P35236 whole entry): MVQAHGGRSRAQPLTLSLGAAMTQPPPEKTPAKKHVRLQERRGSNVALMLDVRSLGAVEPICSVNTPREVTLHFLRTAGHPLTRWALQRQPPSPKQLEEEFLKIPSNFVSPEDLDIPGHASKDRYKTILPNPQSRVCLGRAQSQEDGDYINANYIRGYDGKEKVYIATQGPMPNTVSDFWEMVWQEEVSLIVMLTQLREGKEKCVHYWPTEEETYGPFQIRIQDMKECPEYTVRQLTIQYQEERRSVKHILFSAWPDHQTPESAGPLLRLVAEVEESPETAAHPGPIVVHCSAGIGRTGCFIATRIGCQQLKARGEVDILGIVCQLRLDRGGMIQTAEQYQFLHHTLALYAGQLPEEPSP

ORF 73 = biological target: T5, ORF 73 (Human herpesvirus 8, UniProt O40947); test: inhibitors of C-LANA binding to LBS DNA, dose response, biochemical, fluorescence polarization, cherry-picked samples (AID 504725); set-up: species or system Human gammaherpesvirus 8;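 also: fluorescence polarization of a labeled DNA duplex reporting LANA DNA binding; potency is for inhibitors that block LANA binding to the DNA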
T5 sequence (O40947 whole entry): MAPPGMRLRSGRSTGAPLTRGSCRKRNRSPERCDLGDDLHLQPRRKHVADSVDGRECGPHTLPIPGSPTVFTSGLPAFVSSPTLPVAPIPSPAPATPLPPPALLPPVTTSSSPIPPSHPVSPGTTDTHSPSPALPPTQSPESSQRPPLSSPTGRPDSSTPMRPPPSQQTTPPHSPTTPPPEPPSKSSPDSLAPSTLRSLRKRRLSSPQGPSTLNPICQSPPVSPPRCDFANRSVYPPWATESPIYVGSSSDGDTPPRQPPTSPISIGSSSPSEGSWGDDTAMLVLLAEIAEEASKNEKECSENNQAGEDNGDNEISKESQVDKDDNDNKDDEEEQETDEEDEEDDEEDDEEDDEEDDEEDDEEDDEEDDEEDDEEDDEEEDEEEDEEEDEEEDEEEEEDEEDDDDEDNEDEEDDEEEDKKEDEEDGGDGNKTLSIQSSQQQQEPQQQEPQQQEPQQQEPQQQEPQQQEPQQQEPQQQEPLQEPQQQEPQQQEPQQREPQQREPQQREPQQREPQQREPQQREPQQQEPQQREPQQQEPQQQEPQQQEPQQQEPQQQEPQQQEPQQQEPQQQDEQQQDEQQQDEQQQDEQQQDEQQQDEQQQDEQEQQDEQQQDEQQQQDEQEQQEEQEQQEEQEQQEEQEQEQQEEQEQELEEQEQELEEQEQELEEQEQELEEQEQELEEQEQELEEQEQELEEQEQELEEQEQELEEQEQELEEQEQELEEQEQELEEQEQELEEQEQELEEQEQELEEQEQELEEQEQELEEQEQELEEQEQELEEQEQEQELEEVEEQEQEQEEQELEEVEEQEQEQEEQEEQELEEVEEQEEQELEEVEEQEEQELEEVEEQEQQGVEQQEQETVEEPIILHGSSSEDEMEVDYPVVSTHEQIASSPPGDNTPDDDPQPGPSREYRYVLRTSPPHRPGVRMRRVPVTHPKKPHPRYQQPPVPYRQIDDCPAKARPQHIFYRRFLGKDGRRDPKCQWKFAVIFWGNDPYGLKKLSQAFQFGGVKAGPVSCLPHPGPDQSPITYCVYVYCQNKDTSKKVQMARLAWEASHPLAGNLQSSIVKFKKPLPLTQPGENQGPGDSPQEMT

[13] = biological target: T6, Small ubiquitin-related modifier 1 (Homo sapiens, UniProt P63165); test: inhibitors of SUMO1 partner interactions, dose response, biochemical, FRET (AID 624383); type: functional; settings: read-out: IC50_Mean
[14] = biological target: Heat shock 70 kDa protein 1A (Homo sapiens, UniProt P0DMV8); test: Hsp70 inhibitors, SAR follow-up, biochemical, fluorescence polarization (AID 1072)
[15] = biological target: T7, Dual specificity protein phosphatase 6 (Rattus norvegicus, UniProt Q64346)
T7 sequence (Q64346 whole entry): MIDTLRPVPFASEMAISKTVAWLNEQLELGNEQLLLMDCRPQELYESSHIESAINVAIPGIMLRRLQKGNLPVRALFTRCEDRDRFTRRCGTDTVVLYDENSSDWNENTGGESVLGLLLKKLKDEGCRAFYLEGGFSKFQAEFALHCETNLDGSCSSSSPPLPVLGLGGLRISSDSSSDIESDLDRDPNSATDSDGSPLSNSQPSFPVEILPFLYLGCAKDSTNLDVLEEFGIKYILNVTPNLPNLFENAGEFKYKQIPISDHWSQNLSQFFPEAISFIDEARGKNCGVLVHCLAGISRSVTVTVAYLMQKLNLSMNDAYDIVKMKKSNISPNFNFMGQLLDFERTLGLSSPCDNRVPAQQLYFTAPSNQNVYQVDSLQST

NS3 = NS3 (Hepatitis C virus, UniProt A3EZJ3); test: PubChem AID 2173; set-up: species or system Hepacivirus hominis
Large T antigen = Large T antigen (Simian virus 40, UniProt P03070); type: functional, Betapolyomavirus macacae;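 also: Confirmatory-stage PubChem screen for compounds that inhibit SV40 T antigen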
[16] = biological target: Glyceraldehyde-3-phosphate dehydrogenase (Homo sapiens, UniProt P04406)
[17] = biological target: T8, Small ubiquitin-related modifier 2 (Homo sapiens, UniProt P61956); test: inhibitors of SUMO2 protein-protein interaction, dose response, selectivity assay for SUMO1 interaction inhibitor project, biochemical, FRET, human SUMO2, uHTS hits (AID 624384); type: functional; settings: read-out: IC50_Mean
[18] = biological target: T7, Dual specificity protein phosphatase 6; type: functional
[19] = biological target: T6, Small ubiquitin-related modifier 1; test: inhibitors of SUMO1 peptide binding, dose response, biochemical, fluorescence polarization, uHTS hits (AID 624382); type: functional; settings: read-out: IC50_Mean
[20] = biological target: Heat shock cognate 71 kDa protein (Homo sapiens, UniProt P11142); test: In Vitro Hsc70 Dose Response Fluorescence Polarization Assay. [Related pubchem assays: 1072 ]
[21] = biological target: T8, Small ubiquitin-related modifier 2; test: SUMO2–SIM peptide binding inhibitors, dose response, selectivity assay for SUMO1 interaction inhibitor project, biochemical, fluorescence polarization, uHTS hits (AID 624385); type: functional; settings: read-out: IC50_Mean
[22] = biological target: Aryl hydrocarbon receptor (Homo sapiens, UniProt P35869); settings: Potency;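 also: confirmatory quantitative high-throughput screen measuring activation of the AhR signaling pathway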
Aryl hydrocarbon receptor, sequence (P35869 whole entry): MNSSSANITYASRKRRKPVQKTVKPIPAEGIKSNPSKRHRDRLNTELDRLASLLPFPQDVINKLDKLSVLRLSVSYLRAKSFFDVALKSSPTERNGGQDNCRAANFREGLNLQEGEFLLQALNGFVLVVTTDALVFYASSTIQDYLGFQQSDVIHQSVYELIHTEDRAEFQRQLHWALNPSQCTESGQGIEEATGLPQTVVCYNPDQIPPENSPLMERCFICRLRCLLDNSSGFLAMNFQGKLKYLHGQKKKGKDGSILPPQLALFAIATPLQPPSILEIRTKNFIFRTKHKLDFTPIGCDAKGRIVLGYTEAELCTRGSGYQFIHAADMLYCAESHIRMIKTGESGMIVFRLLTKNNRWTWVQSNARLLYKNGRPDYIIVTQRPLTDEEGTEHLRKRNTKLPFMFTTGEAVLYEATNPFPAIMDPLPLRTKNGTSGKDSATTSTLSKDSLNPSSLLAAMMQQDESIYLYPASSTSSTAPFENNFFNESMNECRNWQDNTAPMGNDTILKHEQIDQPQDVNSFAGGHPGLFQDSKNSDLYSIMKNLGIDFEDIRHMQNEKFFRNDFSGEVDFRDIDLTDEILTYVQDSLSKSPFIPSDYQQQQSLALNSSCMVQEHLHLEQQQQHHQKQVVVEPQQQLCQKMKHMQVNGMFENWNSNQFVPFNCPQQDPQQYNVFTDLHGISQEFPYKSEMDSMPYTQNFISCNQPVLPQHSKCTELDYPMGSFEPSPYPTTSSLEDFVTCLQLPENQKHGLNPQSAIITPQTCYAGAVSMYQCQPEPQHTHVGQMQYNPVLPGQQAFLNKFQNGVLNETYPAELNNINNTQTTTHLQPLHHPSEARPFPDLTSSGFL

T8 sequence (P61956 whole entry): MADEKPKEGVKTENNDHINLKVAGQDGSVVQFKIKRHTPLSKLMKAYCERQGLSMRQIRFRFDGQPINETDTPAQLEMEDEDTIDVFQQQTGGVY
T6 sequence (P63165 whole entry): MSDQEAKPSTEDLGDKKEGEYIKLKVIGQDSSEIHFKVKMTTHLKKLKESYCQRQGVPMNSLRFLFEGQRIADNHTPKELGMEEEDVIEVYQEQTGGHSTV
Cytochrome P450 2C19, sequence (P33261 whole entry): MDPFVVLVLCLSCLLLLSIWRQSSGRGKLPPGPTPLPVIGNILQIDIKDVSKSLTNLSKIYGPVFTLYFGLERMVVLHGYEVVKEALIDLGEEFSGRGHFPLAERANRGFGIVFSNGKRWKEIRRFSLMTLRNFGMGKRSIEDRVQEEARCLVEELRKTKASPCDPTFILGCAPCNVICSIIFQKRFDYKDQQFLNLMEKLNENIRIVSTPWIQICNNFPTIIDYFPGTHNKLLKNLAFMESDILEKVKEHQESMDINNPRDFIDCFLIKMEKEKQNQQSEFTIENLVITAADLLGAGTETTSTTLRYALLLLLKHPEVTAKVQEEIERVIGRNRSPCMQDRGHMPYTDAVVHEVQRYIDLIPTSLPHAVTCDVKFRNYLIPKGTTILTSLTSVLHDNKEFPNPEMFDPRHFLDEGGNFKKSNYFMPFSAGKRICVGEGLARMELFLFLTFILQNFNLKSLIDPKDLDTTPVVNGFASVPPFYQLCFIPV
NS3, sequence (A3EZJ3 whole entry): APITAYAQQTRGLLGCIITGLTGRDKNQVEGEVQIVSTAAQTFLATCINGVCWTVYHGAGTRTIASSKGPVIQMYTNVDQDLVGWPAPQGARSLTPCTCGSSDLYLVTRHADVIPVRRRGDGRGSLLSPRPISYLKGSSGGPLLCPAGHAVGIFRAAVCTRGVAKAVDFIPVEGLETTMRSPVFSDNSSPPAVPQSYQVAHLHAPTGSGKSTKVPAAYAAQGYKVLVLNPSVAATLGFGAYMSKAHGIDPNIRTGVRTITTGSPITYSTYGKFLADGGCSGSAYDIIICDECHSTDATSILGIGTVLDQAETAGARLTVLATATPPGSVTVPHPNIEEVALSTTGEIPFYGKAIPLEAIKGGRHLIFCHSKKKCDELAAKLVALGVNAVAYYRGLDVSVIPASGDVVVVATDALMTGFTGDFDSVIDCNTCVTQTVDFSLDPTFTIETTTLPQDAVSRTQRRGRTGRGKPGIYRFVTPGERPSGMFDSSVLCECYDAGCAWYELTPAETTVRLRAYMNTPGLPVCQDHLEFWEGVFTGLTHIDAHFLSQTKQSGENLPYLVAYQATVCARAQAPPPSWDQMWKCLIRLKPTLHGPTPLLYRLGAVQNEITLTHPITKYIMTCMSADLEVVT
Glyceraldehyde-3-phosphate dehydrogenase, sequence (P04406 whole entry): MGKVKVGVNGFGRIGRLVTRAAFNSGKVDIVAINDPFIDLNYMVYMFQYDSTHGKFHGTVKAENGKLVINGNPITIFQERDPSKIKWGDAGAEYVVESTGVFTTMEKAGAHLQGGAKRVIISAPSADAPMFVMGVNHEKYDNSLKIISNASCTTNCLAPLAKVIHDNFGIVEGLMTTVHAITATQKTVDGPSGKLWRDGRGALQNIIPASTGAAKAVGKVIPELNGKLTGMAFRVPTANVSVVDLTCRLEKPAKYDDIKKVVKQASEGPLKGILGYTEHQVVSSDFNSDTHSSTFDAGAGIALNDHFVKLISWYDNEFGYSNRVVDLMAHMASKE
Cytochrome P450 2C9, sequence (P11712 whole entry, the tested form may be a part): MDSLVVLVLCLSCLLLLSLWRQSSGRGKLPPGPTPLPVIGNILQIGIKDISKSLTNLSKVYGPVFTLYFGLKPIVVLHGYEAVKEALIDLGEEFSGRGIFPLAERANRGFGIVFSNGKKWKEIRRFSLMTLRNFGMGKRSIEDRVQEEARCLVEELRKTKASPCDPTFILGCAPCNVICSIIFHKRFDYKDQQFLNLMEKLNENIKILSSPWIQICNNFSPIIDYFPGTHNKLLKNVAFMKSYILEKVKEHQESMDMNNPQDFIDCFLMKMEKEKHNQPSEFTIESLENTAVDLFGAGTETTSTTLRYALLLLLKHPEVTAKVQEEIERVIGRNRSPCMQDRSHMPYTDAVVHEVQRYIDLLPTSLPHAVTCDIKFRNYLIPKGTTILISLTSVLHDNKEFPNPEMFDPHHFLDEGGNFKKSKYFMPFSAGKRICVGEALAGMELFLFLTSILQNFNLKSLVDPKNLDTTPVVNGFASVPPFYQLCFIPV
Large T antigen, sequence (P03070 whole entry): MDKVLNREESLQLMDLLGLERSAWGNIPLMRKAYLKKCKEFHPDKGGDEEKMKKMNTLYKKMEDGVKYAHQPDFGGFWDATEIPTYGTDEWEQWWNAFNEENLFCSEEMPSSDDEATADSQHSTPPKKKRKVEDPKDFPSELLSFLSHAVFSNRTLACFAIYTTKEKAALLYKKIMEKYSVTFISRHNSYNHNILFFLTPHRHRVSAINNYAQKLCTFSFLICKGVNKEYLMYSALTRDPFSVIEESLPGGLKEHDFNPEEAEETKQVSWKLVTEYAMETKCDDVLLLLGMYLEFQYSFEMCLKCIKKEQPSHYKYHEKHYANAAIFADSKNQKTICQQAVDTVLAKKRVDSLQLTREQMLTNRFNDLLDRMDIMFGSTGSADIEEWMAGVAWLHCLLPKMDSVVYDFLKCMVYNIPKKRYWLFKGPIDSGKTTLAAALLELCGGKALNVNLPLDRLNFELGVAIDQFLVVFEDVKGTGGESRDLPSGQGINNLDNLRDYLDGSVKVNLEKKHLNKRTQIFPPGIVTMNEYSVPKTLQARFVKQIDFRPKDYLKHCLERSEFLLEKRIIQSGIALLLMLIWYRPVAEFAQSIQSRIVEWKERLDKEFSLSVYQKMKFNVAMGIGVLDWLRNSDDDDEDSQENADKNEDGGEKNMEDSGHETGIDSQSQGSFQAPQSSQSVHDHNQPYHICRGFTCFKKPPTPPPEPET
Mitochondrial peptide methionine sulfoxide reductase, sequence (P54149 whole entry): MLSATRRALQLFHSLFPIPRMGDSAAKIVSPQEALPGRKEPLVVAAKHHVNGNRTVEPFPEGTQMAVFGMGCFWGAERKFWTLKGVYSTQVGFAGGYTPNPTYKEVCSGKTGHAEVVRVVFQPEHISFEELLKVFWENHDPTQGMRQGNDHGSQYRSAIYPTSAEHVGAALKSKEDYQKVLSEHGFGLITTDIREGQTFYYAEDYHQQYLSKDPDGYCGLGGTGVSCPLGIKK
Melanocortin receptor 4, sequence (P32245 whole entry): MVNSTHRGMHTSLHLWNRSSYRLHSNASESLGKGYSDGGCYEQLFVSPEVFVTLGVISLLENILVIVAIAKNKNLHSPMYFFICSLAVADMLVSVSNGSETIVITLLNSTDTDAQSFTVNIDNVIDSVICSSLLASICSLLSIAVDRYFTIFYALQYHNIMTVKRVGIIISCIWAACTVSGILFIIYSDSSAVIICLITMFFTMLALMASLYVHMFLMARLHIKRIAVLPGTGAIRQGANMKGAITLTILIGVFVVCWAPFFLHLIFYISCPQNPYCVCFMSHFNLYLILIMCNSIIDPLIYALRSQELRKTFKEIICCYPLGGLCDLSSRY
Cytochrome P450 2D6, sequence (P10635 whole entry): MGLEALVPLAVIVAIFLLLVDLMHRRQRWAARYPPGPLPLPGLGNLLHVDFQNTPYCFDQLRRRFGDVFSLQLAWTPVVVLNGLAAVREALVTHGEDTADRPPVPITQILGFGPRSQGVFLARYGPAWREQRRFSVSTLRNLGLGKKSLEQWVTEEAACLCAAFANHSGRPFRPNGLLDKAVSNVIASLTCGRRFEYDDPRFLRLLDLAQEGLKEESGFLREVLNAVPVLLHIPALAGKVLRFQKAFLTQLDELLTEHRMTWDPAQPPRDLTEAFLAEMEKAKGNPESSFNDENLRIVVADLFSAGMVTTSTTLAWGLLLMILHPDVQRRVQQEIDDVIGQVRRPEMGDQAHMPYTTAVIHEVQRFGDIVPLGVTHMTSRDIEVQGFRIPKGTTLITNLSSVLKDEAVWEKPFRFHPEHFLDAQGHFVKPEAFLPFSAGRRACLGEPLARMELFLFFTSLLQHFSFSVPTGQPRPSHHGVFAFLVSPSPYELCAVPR

IC50 [1]: 35.2 µM (inactive)
Compound: CCC(c1nc2ccccc2c(=O)n1CCCn1ccnc1)N1C(=O)c2ccccc2C1=O (stereo unspecified)

AC50 (Cytochrome P450 2C9): 20 µM (inconclusive)
AC50 (Cytochrome P450 2C19): 25.1 µM (inconclusive)
Compound: CC(C)c1ccc(O)c(NC(=O)c2nc[nH]n2)c1
AC50 [2]: 118 µM (active)

Compound: Cc1ccc(S(=O)(=O)Nc2ccc3c(c2)CC(=O)N([C@@H](C)CO)C[C@@H](C)[C@H](CN(C)S(=O)(=O)c2ccc(Cl)cc2)O3)cc1
AC50 [3]: 17.8 µM (active)

IC50 [4]: 8.37 µM (active)
AC50 (Cytochrome P450 3A4): 1 µM (inconclusive)
AC50 (Cytochrome P450 2D6): 17.8 µM (inconclusive)
IC50 [5]: 25.1 µM (inactive)
Compound: c1ccc(-c2nc(NCc3cccnc3)c3ccccc3n2)cc1

EC50 (Melanocortin receptor 4): > 89.2 µM (inactive)
Compound: Cc1cc(C)nc(Nc2nc(C(N)Cc3ccc(C(F)(F)F)cc3)cs2)n1 (stereo unspecified)

Compound: O=[N+]([O-])c1ccc(/C=N/c2cccc3ccccc23)s1
IC50 [6]: > 50 µM (not active)
EC50 [7]: 2.73 µM (active)
EC50 [8]: > 104 µM (inactive)
AC50 [9]: 7.99 µM (active)
EC50 [10]: > 60 µM (not active)

Compound: Cc1cc(C)c2c(c1)NC(C(=O)O)C1CC=CC21 (stereo unspecified)
AC50 (HeLa): 264 µM (active)
IC50 [11]: 171 µM (active)
IC50 [12]: > 100 µM (not active)
AC50 (ORF 73): 61.2 µM (active)
IC50 [13]: 22.8 µM (inactive)
IC50 [14]: > 100 µM (not active)
IC50 [15]: 41.3 µM (active)
IC50 (NS3): 3.67 µM (active)
IC50 (Large T antigen): 26.8 µM (active)
IC50 [16]: 91.4 µM (active)
IC50 [17]: 3.69 µM (active)
IC50 [18]: 46.1 µM (active)
IC50 [19]: 4.97 µM (active)
IC50 [20]: > 100 µM (not active)
IC50 [21]: 13.4 µM (active)

Compound: CCSC(=O)N(CC)C1CCCCC1 [CYCLOATE]
AC50 [22]: 0.794 µM (inconclusive)
